Results: PubChem BioAssay (NCI)
“And” between values parts separate entries of the source, which are not always exact repeats. Identical values can stand only once.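 Results reflect a 48-hour exposure of cells in 96-well plates to compound at five concentrations. Abbreviation: GI50, concentration required for 50% inhibition of growth. TGI is the concentration that stops growth completely.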

Columns and labels:
Assay in all cases: NCI tumour cell line growth inhibition, 48 h
HL-60(TB) leukemia = system: HL-60(TB) leukemia
M14 melanoma = system: M14 melanoma
MALME-3M melanoma = system: MALME-3M melanoma
MOLT-4 leukemia = system: MOLT-4 leukemia
NCI/ADR-RES ovarian = system: NCI/ADR-RES ovarian
PC-3 prostate = system: PC-3 prostate
SF-268 CNS = system: SF-268 CNS
SK-MEL-28 melanoma = system: SK-MEL-28 melanoma
SNB-19 CNS = system: SNB-19 CNS
UACC-257 melanoma = system: UACC-257 melanoma

SMILES	GI50 (HL-60(TB) leukemia)	TGI (HL-60(TB) leukemia)	GI50 (M14 melanoma)	TGI (M14 melanoma)	GI50 (MALME-3M melanoma)	TGI (MALME-3M melanoma)	GI50 (MOLT-4 leukemia)	TGI (MOLT-4 leukemia)	GI50 (NCI/ADR-RES ovarian)	TGI (NCI/ADR-RES ovarian)	GI50 (PC-3 prostate)	TGI (PC-3 prostate)	GI50 (SF-268 CNS)	TGI (SF-268 CNS)	GI50 (SK-MEL-28 melanoma)	TGI (SK-MEL-28 melanoma)	GI50 (SNB-19 CNS)	TGI (SNB-19 CNS)	GI50 (UACC-257 melanoma)	TGI (UACC-257 melanoma)
CN(/N=N/c1nc(OCc2ccccc2)c2[nH]cnc2n1)C(=O)N(C)/N=N/c1nc(OCc2ccccc2)c2[nH]cnc2n1	63.7 µM	> 100 µM	71.2 µM	> 100 µM	40.8 µM	> 100 µM	53.1 µM	> 100 µM	47.2 µM	> 100 µM	40.5 µM	> 100 µM	47.6 µM	> 100 µM	> 100 µM	> 100 µM	> 100 µM	> 100 µM	54.7 µM	> 100 µM
COc1ccc(C2=C(c3cn(C)c4ccccc34)C(=O)NC2=O)cc1OC	6.27 µM	17.2 µM	6.83 µM	> 25 µM	> 25 µM	> 25 µM	8.84 µM	> 25 µM	7.99 µM	> 25 µM	7.29 µM	> 25 µM	8.85 µM	> 25 µM	16.8 µM	> 25 µM	> 25 µM	> 25 µM	> 25 µM	> 25 µM
COC[C@H]1OC(=O)c2coc3c2[C@@]1(C)C1=C(C3=O)[C@@H]2CCC(=O)[C@@]2(C)C[C@H]1OC(C)=O	2.98 µM	53.7 µM		> 59 µM	1.44 µM	39.3 µM		42.3 µM		> 100 µM		> 100 µM		> 100 µM		> 100 µM		> 100 µM		> 100 µM
Cc1ccc(C(=O)N/N=C/c2cccc(Oc3ccccc3)c2)cn1	1.8 µM	5.77 µM	6.08 µM	> 100 µM	9.14 µM	> 100 µM	3.83 µM	34.5 µM	4.43 µM	> 71.4 µM	7.75 µM	> 100 µM	34.5 µM	> 100 µM	27.3 µM	> 100 µM	10.3 µM	> 100 µM	> 56.3 µM	> 100 µM
Cc1c(CN2CCC(Nc3ncnc4sc(CC(F)(F)F)cc34)CC2)ccc2c1cc(C#N)n2Cc1cn[nH]c1	2.74 µM and 2.83 µM	8.87 µM	1.77 µM and 3.49 µM	3.69 µM	1.31 µM and 2.77 µM	2.95 µM and 15.3 µM	1.91 µM and 1.98 µM	9.55 µM	4.92 µM and 7.36 µM	20.5 µM and > 25.8 µM	2.31 µM and 2.33 µM	18.9 µM and > 32.7 µM	4.48 µM and 5.71 µM	25.5 µM and > 36.5 µM	2.2 µM and 5 µM	6.28 µM	6.75 µM and 6.03 µM	28.9 µM	1.37 µM and 5.31 µM	
CN(C)CC#Cc1cccc(C(=O)c2cnn(-c3ccc(F)cc3)c2N)c1	> 25 µM	> 25 µM	> 25 µM	> 25 µM	> 25 µM	> 25 µM	> 25 µM	> 25 µM	> 25 µM	> 25 µM	> 25 µM	> 25 µM	> 25 µM	> 25 µM	> 25 µM	> 25 µM	> 25 µM	> 25 µM	> 25 µM	> 25 µM
Cn1c(=O)c2[nH]c(COCc3nc4c([nH]3)c(=O)n(C)c(=O)n4C)nc2n(C)c1=O		> 100 µM		> 100 µM		> 100 µM		> 100 µM		> 100 µM		> 100 µM		> 100 µM		> 100 µM		> 100 µM		> 100 µM
O=C(Nc1ccncc1)C(=O)c1cn(S(=O)(=O)c2ccccc2F)c2ccccc12	0.576 µM		0.979 µM	> 100 µM	1.65 µM	> 100 µM	3.45 µM	> 45.7 µM	0.579 µM	> 100 µM	2.35 µM	> 68.5 µM	2.32 µM	> 79.3 µM	3.59 µM	49.1 µM	7.17 µM	> 80.4 µM	5.51 µM	> 78.4 µM
Nc1ncc(-c2ccc(C(F)(F)F)cc2)c(NC2CCCCCC2)n1	21.4 µM	63.6 µM	32.9 µM	> 100 µM	18.6 µM	81.8 µM	23.3 µM	81.5 µM	25.3 µM	> 100 µM	25.4 µM	> 100 µM	48.4 µM	> 100 µM	53.6 µM	> 100 µM	47.4 µM	> 100 µM	22.3 µM	> 100 µM
CCN(CC)CCCC(C)Nc1cnc(C(=O)Nc2cc(F)cc3cccnc23)cn1 (centres undefined)		25.6 µM and 31.3 µM	2.04 µM and 0.994 µM	4.38 µM and 2.58 µM	1.77 µM and 0.983 µM	3.38 µM and 2.28 µM	1.94 µM and 0.496 µM	6.53 µM and > 43 µM	7.27 µM and 2.6 µM	21.6 µM and 11.2 µM	3.55 µM and 0.614 µM	15.3 µM and 2.24 µM	5.32 µM and 1.56 µM	20.9 µM and 3.25 µM	1.84 µM and 1.22 µM	3.53 µM and 2.5 µM	10.5 µM and 1.73 µM	22.8 µM and 3.14 µM	1.99 µM and 0.563 µM	4.13 µM and 1.94 µM
c1cncc(CNc2ccccc2-c2nnc(Nc3ccc4c(c3)OCCO4)o2)c1	0.103 µM	3.34 µM	0.0704 µM	> 100 µM	19.2 µM	> 100 µM	0.435 µM	15.5 µM	0.0557 µM	> 100 µM	0.128 µM	> 100 µM	0.646 µM	> 100 µM	0.145 µM	> 100 µM	0.345 µM	> 100 µM	11.6 µM	> 100 µM
CCS(=O)(=O)c1ccc(OC)c(Nc2nccc(N(C)c3ccc4c(C)[nH]nc4c3)n2)c1	7.37 µM	18.9 µM	8.46 µM	> 21.8 µM	8.48 µM	> 25 µM	6.71 µM	> 25 µM	6.32 µM	> 19.4 µM	5.46 µM	22.1 µM	4.74 µM	> 17.6 µM	6.8 µM	> 25 µM	9.74 µM	> 25 µM	7.57 µM	> 24 µM
COc1cc(-c2cc(-c3nc4ccccc4[nH]3)[nH]n2)cc(OC)c1OC	2.54 µM	10.5 µM	2.57 µM	11.6 µM	1.95 µM	8.49 µM	2.13 µM	5.17 µM	2.88 µM	8.49 µM	2.1 µM	8.54 µM	6.43 µM	21.9 µM	2.72 µM	9.71 µM	17.8 µM	> 100 µM	2.1 µM	6.12 µM
CCOc1cc2ncc(C#N)c(Nc3ccc(F)c(Cl)c3)c2cc1NC(=O)/C=C/CN(C)C	0.57 µM	> 5.51 µM	0.312 µM	1.83 µM	0.36 µM	1.87 µM	0.716 µM	> 4.91 µM	0.679 µM	> 10 µM	1.19 µM	> 9 µM	0.265 µM	> 6.99 µM	1.08 µM	> 4.73 µM	1.61 µM	> 10 µM	1.27 µM	> 6.03 µM
Cn1c2ccc([N+](=O)[O-])cc2c(=O)c2c(O)cc(O)cc21		> 100 µM		> 100 µM		64.6 µM		> 100 µM		55 µM		> 100 µM		80.2 µM		> 100 µM		> 100 µM		> 100 µM
Clc1cc(Cl)cc(N2N=C(c3cccc(Nc4ccncc4)c3)CC2c2ccc(Br)cc2)c1 (centres undefined)	2.44 µM	6.08 µM	1.8 µM	3.63 µM	1.71 µM	3.5 µM	1.95 µM	4.44 µM	1.91 µM	3.86 µM	1.66 µM	3.31 µM	1.76 µM	3.58 µM	1.83 µM	3.37 µM	1.63 µM	3.16 µM	1.92 µM	3.85 µM
Cc1nc(NC(=S)Nc2ccc(F)cc2)sc1C(=O)NNC(=S)Nc1ccc(F)cc1	3.68 µM	27.8 µM	20.2 µM	> 100 µM	13.1 µM	35.5 µM	3.33 µM	> 100 µM	3.62 µM	18.2 µM	4.38 µM	80.7 µM	10.7 µM	28.5 µM	8.65 µM	28.3 µM	8.39 µM	66.5 µM	10.1 µM	36.8 µM
COc1ccc(C(=O)c2cc(OC)c(OC)c(OC)c2)cc1O	0.0103 µM	0.0557 µM	< 0.01 µM	> 100 µM	> 100 µM	> 100 µM	0.0367 µM	> 100 µM	0.0118 µM	> 100 µM	0.0285 µM	> 100 µM	0.0613 µM	> 100 µM	> 80.8 µM	> 100 µM	0.268 µM	> 100 µM	> 100 µM	> 100 µM
N#CC(C#N)=CN1CCN(C(=O)c2ccccc2)C1=S	33.5 µM	79.4 µM	37.3 µM	> 100 µM	10.2 µM	64.1 µM	39.2 µM	> 100 µM	> 100 µM	> 100 µM	60 µM	> 100 µM	21.3 µM	49 µM	45.4 µM	> 100 µM	> 100 µM	> 100 µM	25.3 µM	81.9 µM
